Reference: patent US20060199857A1, “Therapeutic agents” (ASTRAZENECA UK LIMITED, priority 2003, published 2006)
pEC50: −log10 of the molar value.

Biological target: T1, human PPAR alpha (Homo sapiens, UniProt Q07869)
T1 sequence (Q07869 1-468): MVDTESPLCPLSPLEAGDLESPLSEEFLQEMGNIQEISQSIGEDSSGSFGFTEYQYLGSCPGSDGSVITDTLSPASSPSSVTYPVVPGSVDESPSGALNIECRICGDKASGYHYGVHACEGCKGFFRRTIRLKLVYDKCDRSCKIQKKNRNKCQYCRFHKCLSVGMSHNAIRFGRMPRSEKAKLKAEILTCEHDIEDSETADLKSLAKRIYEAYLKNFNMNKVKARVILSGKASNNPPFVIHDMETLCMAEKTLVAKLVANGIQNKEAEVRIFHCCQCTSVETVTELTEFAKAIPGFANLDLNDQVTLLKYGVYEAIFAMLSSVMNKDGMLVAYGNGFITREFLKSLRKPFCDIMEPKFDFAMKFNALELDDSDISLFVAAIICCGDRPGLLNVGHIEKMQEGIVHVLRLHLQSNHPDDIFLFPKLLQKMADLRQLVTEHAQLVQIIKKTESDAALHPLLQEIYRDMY
Assay: PPAR alpha assay as described in WO03/051821
Format: cell-based
Conditions: assay described in WO03/051821 (incorporated by reference)
Description: The compounds of the invention were tested in the assays described in WO03/051821 which is incorporated herein by reference.

## O=C(c1ccccc1)c1ccc(OCCc2ccc(CC(SCCc3ccc(O)cc3)C(=O)O)cc2)cc1 (stereo not shown) [Example 7, 3-{4-[2-(4-Benzoylphenoxy)ethyl]phenyl}-2-{[2-(4-hydroxyphenyl)ethyl]thio}propanoic acid]
  pEC50: 6.11
